Results: ChEMBL document CHEMBL3244316, “Pharmacology of some metabolites of triazolam, alprazolam, and diazepam prepared by a simple, one-step oxidation of benzodiazepines” (1978)

What was measured:
Type in all cases: functional
Settings in all cases: CF-1, ip
[1] = tested on: Mus musculus; test: Anticonvulsant activity in ip dosed albino CF-1 mouse assessed as inhibition of nicotine-induced seizures
[2] = tested on: Mus musculus; test: Anticonvulsant activity in ip dosed albino CF-1 mouse assessed as inhibition of pentylenetetrazole-induced seizures
[3] = tested on: Mus musculus; test: Anticonvulsant activity in ip dosed albino CF-1 mouse assessed as inhibition of thiosemicarbazide-induced seizures
[4] = tested on: Mus musculus; test: Anticonvulsant activity in ip dosed albino CF-1 mouse assessed as inhibition of strychnine-induced seizures
[5] = tested on: Mus musculus; test: Anticonvulsant activity in ip dosed albino CF-1 mouse assessed as inhibition of maximal electric shock-induced seizures
[6] = tested on: Mus musculus; test: Antidepressant activity in ip dosed albino CF-1 mouse assessed as inhibition of ethanol-induced response
[7] = tested on: Mus musculus; test: Anxiolytic activity in ip dosed albino CF-1 mouse under hypoxic stress
[8] = tested on: Mus musculus; test: Effect on motor activity in ip dosed albino CF-1 mouse by traction test
[9] = tested on: Mus musculus; test: Effect on motor activity in ip dosed albino CF-1 mouse by chimney test
[10] = tested on: Mus musculus; test: Effect on motor activity in ip dosed albino CF-1 mouse by dish test
[11] = tested on: Mus musculus; test: Effect on motor activity in ip dosed albino CF-1 mouse by pedestal test

OCc1nnc2n1-c1ccc(Cl)cc1C(c1ccccc1Cl)=NC2
ED50 [1]: 0.01 mg/kg | ED50 [2]: 0.018 mg/kg | ED50 [3]: 0.014 mg/kg | ED50 [4]: 0.5 mg/kg | ED50 [5]: 89 mg/kg | ED50 [6]: 0.4 mg/kg | ED50 [7]: 0.5 mg/kg | ED50 [8]: 0.6 mg/kg | ED50 [9]: 0.14 mg/kg | ED50 [10]: 0.03 mg/kg | ED50 [11]: 0.17 mg/kg

CN(C)Cc1nnc2n1-c1ccc(Cl)cc1C(c1ccccc1)=NC2O (stereo not given)
ED50 [1]: 2.2 mg/kg | ED50 [2]: 4 mg/kg | ED50 [3]: 0.88 mg/kg | ED50 [4]: > 40 mg/kg | ED50 [5]: > 100 mg/kg | ED50 [6]: > 20 mg/kg | ED50 [7]: 25 mg/kg | ED50 [8]: 22 mg/kg | ED50 [9]: 4 mg/kg | ED50 [10]: 5 mg/kg | ED50 [11]: 22 mg/kg

Clc1ccc2c(c1)C(c1ccccc1)=NCc1nccn1-2
ED50 [1]: 1 mg/kg | ED50 [2]: 2.2 mg/kg | ED50 [3]: 1.6 mg/kg | ED50 [4]: 7 mg/kg | ED50 [5]: 32 mg/kg | ED50 [6]: 3.6 mg/kg | ED50 [7]: 25 mg/kg | ED50 [8]: 16 mg/kg | ED50 [9]: 3.6 mg/kg | ED50 [10]: 5 mg/kg | ED50 [11]: 4 mg/kg

Cc1nnc2n1-c1ccc(Cl)cc1C(c1ccccc1)=NC2 [ALPRAZOLAM]
ED50 [1]: 0.02 mg/kg | ED50 [2]: 0.13 mg/kg | ED50 [3]: 0.16 mg/kg | ED50 [4]: 0.3 mg/kg | ED50 [5]: 25 mg/kg | ED50 [6]: 0.18 mg/kg | ED50 [7]: 0.02 mg/kg | ED50 [8]: 0.6 mg/kg | ED50 [9]: 0.09 mg/kg | ED50 [10]: 0.15 mg/kg | ED50 [11]: 0.23 mg/kg

Cc1nnc2n1-c1ccc(Cl)cc1C(c1ccccc1Cl)=NC2O (stereo not given)
ED50 [1]: 10 mg/kg | ED50 [2]: 14 mg/kg | ED50 [3]: 11.2 mg/kg | ED50 [4]: > 80 mg/kg | ED50 [5]: > 100 mg/kg | ED50 [6]: > 80 mg/kg | ED50 [7]: > 100 mg/kg | ED50 [8]: > 100 mg/kg | ED50 [9]: 45 mg/kg | ED50 [10]: 8 mg/kg | ED50 [11]: 11 mg/kg

OC1N=C(c2ccccc2)c2cc(Cl)ccc2-n2ccnc21 (stereo not given)
ED50 [1]: 4 mg/kg | ED50 [2]: 6.3 mg/kg | ED50 [3]: 6.3 mg/kg | ED50 [4]: > 80 mg/kg | ED50 [5]: 63 mg/kg | ED50 [6]: 7.9 mg/kg | ED50 [7]: 60 mg/kg | ED50 [8]: 32 mg/kg | ED50 [9]: > 25 mg/kg | ED50 [10]: 6 mg/kg | ED50 [11]: 7 mg/kg

CN1C(=O)C(O)N=C(c2ccccc2)c2cc(Cl)ccc21 (stereo not given) [TEMAZEPAM]
ED50 [1]: 0.063 mg/kg | ED50 [2]: 0.3 mg/kg | ED50 [3]: 0.3 mg/kg | ED50 [4]: 2.8 mg/kg | ED50 [5]: 10 mg/kg | ED50 [6]: 0.32 mg/kg | ED50 [7]: 0.2 mg/kg | ED50 [8]: 4 mg/kg | ED50 [9]: 0.45 mg/kg | ED50 [10]: 0.36 mg/kg | ED50 [11]: 0.7 mg/kg

OCc1nnc2n1-c1ccc(Cl)cc1C(c1ccccc1Cl)=NC2O (stereo not given)
ED50 [1]: 1 mg/kg | ED50 [2]: 32 mg/kg | ED50 [3]: 0.39 mg/kg | ED50 [4]: > 80 mg/kg | ED50 [5]: > 100 mg/kg | ED50 [6]: 50 mg/kg | ED50 [7]: 30 mg/kg | ED50 [8]: > 100 mg/kg | ED50 [9]: 2.2 mg/kg | ED50 [10]: 5 mg/kg | ED50 [11]: 44 mg/kg

Cc1nnc2n1-c1ccc(Cl)cc1C(c1ccccc1Cl)=NC2 [TRIAZOLAM]
ED50 [1]: 0.004 mg/kg | ED50 [2]: 0.009 mg/kg | ED50 [3]: 0.02 mg/kg | ED50 [4]: 0.22 mg/kg | ED50 [5]: 30 mg/kg | ED50 [6]: 0.7 mg/kg | ED50 [7]: 0.035 mg/kg | ED50 [8]: 0.3 mg/kg | ED50 [9]: 0.08 mg/kg | ED50 [10]: 0.03 mg/kg | ED50 [11]: 0.03 mg/kg

OCc1nnc2n1-c1ccc(Cl)cc1C(c1ccccc1)=NC2
ED50 [1]: 0.08 mg/kg | ED50 [2]: 0.22 mg/kg | ED50 [3]: 0.08 mg/kg | ED50 [4]: 9.9 mg/kg | ED50 [5]: 50 mg/kg | ED50 [6]: 1.8 mg/kg | ED50 [7]: 0.02 mg/kg | ED50 [8]: 8 mg/kg | ED50 [9]: 0.63 mg/kg | ED50 [10]: 2 mg/kg

Cc1nnc2n1-c1ccc(Cl)cc1C(c1ccccc1)=NC2O (stereo not given) [4-HYDROXY-ALPRAZOLAM]
ED50 [1]: 4 mg/kg | ED50 [2]: 0.7 mg/kg | ED50 [3]: 5 mg/kg | ED50 [4]: 25 mg/kg | ED50 [5]: > 50 mg/kg | ED50 [6]: 10 mg/kg | ED50 [7]: 6.2 mg/kg | ED50 [8]: 23 mg/kg | ED50 [9]: 6.3 mg/kg | ED50 [10]: 6.3 mg/kg | ED50 [11]: 20 mg/kg

O=C1CN=C(c2ccccc2)c2cc(Cl)ccc2N1 [NORDAZEPAM]
ED50 [1]: 0.3 mg/kg | ED50 [2]: 1.6 mg/kg | ED50 [3]: 1.8 mg/kg | ED50 [4]: 20 mg/kg | ED50 [5]: > 100 mg/kg | ED50 [6]: 1.8 mg/kg | ED50 [7]: 0.7 mg/kg | ED50 [8]: 7 mg/kg | ED50 [9]: 0.7 mg/kg | ED50 [10]: 0.5 mg/kg | ED50 [11]: 0.9 mg/kg

CN1C(=O)CN=C(c2ccccc2)c2cc(Cl)ccc21 [DIAZEPAM]
ED50 [1]: 0.1 mg/kg | ED50 [2]: 0.8 mg/kg | ED50 [3]: 0.4 mg/kg | ED50 [4]: 4 mg/kg | ED50 [5]: 25 mg/kg | ED50 [6]: 1 mg/kg | ED50 [7]: 0.2 mg/kg | ED50 [8]: 4 mg/kg | ED50 [9]: 1.2 mg/kg | ED50 [10]: 0.25 mg/kg | ED50 [11]: 0.7 mg/kg

CN(C)Cc1nnc2n1-c1ccc(Cl)cc1C(c1ccccc1)=NC2 [ADINAZOLAM]
ED50 [1]: 0.2 mg/kg | ED50 [2]: 0.8 mg/kg | ED50 [3]: 0.15 mg/kg | ED50 [4]: > 200 mg/kg | ED50 [5]: 100 mg/kg | ED50 [6]: 2.2 mg/kg | ED50 [7]: 1.9 mg/kg | ED50 [8]: 5.6 mg/kg | ED50 [9]: 3.6 mg/kg | ED50 [10]: 1.5 mg/kg | ED50 [11]: 2.8 mg/kg

O=C1Nc2ccc(Cl)cc2C(c2ccccc2)=NC1O (stereo not given) [OXAZEPAM]
ED50 [1]: 0.14 mg/kg | ED50 [2]: 0.7 mg/kg | ED50 [3]: 0.9 mg/kg | ED50 [4]: 9 mg/kg | ED50 [5]: 79 mg/kg | ED50 [6]: 1.8 mg/kg | ED50 [7]: 12.5 mg/kg | ED50 [8]: 13 mg/kg | ED50 [9]: 1.8 mg/kg | ED50 [10]: 1.1 mg/kg | ED50 [11]: 2 mg/kg

OCc1nnc2n1-c1ccc(Cl)cc1C(c1ccccc1)=NC2O (stereo not given)
ED50 [1]: 6.2 mg/kg | ED50 [2]: 40 mg/kg | ED50 [3]: 8.9 mg/kg | ED50 [4]: > 80 mg/kg | ED50 [5]: > 100 mg/kg | ED50 [6]: > 80 mg/kg | ED50 [7]: > 50 mg/kg | ED50 [8]: > 100 mg/kg | ED50 [9]: > 80 mg/kg | ED50 [10]: 56 mg/kg | ED50 [11]: > 80 mg/kg
